Measurements taken from ChEMBL document CHEMBL4359897, “Discovery of novel functionalized 1,2,4-triazoles as PARP-1 inhibitors in breast cancer: Design, synthesis and antitumor activity evaluation” (Eur J Med Chem, 2019).
Active and inactive are the calls of the source. The calls are words filed in the database; no cut-off is given here.

How the values were obtained:
[1] = system: MCF7; experiment: Cytotoxicity against human MCF7 cells at 2.5 to 5 uM incubated for 30 hrs by MTT assay; format: functional, cell-based
[2] = system: MCF7; experiment: Cytotoxicity against human MCF7 cells assessed as increase in extra cellular LDH at 2.5 to 5 uM incubated for 30 hrs by spectrophotometric based LDH assay; format: functional, cell-based
[3] = target: Poly [ADP-ribose] polymerase 1 (Homo sapiens, UniProt P09874); experiment: Inhibition of recombinant human full length N-terminal GST- tagged PARP1 expressed in baculovirus infected sf9 cells using Colorimetric HRP as substrate incubated for 30 mins by UV/Vis spectrophotometer analysis
Sequence of Poly [ADP-ribose] polymerase 1 (P09874 whole entry): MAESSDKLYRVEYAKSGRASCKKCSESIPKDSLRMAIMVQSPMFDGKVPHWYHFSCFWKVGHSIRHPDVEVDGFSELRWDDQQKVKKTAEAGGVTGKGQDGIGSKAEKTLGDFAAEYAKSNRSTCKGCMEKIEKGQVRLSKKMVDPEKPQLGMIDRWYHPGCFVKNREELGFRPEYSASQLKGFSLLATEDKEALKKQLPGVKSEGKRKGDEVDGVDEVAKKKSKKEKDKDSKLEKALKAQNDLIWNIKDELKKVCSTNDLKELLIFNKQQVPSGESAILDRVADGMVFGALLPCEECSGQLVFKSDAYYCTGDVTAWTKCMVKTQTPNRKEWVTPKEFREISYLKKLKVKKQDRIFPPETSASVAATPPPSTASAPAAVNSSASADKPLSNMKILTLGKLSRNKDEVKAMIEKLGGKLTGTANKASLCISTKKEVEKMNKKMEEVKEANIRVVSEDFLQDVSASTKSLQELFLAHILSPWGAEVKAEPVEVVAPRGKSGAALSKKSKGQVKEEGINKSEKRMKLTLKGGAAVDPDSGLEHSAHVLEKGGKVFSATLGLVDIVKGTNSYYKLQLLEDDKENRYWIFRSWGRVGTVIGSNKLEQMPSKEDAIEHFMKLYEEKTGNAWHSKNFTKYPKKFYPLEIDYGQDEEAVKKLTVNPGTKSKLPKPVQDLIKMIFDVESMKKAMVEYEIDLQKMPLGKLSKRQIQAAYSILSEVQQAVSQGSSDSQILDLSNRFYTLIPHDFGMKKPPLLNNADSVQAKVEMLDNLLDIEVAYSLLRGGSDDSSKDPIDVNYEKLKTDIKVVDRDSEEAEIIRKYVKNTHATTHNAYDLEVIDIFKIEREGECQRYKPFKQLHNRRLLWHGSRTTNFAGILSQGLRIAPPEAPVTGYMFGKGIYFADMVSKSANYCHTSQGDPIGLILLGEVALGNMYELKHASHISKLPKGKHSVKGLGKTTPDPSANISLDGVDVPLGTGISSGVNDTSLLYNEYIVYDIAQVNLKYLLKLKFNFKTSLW

[4] = system: MCF7; experiment: Antiproliferative activity against human MCF7 cells incubated for 30 hrs by hematoxylin staining based BrdU incorporation assay; format: functional, cell-based
[5] = system: MCF7; experiment: Inhibition of cell migration in human MCF7 cells incubated for 30 hrs by scratch wound assay; format: functional, cell-based
[6] = system: MCF7; experiment: Antiproliferative activity against human MCF7 cells assessed as increase in PARP1-89 protein expression at 5 uM incubated for 30 hrs by Western blot analysis; format: functional, cell-based
[7] = system: MCF7; experiment: Inhibition of cell migration in human MCF7 cells at 2.5 to 5 uM incubated for 30 hrs by scratch wound assay relative to control; format: functional

Compound | Activity [1] | Activity [2] | IC50 [3] | Activity [4] | inhibition [5] | Activity [6] | inhibition (INH) [7] | inhibition [7]
O=C(c1cc(Cc2n[nH]c(=O)c3ccccc23)ccc1F)N1CCN(C(=O)C2CC2)CC1 | Active |  |  |  |  |  |  | 
CC(O)CSc1nnc(-c2cc3ccccc3[nH]2)n1-c1ccccc1 (configuration not stated) |  | Active | 330 nM |  |  |  |  | 
C=CCSc1nnc(-c2cc3ccccc3[nH]2)n1-c1ccccc1 | Active | Active | 2400 nM | Dose-dependent effect | Dose-dependent effect | Active | 30 - 40% | 
S=c1[nH]nc(CSc2nnc(-c3cc4ccccc4[nH]3)n2-c2ccccc2)n1-c1ccccc1 |  | Active | 8080 nM |  |  |  |  | 
S=c1[nH]nc(-c2cc3ccccc3[nH]2)n1-c1ccccc1 | Active | Active | 2100 nM | Dose-dependent effect | Dose-dependent effect | Active | 30 - 40% | 
C=CCSc1nnc(-c2cc3ccccc3n2CC=C)n1-c1ccccc1 | Active | Active | 350 nM | Dose-dependent effect | Dose-dependent effect | Active | 30 - 40% | 
CC(=O)OC[C@H]1O[C@@H](Sc2nnc(-c3cc4ccccc4[nH]3)n2-c2ccccc2)[C@H](OC(C)=O)[C@@H](OC(C)=O)[C@@H]1OC(C)=O | Active | Active | 2220 nM | Dose-dependent effect |  | inactive |  | inactive
